Assay in all cases: relative viability (nuclei count vs DMSO), 5 days (fraction); higher = more cells survive
Compound in assay [1]: CC1=CC=C(C=C1)C(=O)CN2C3=C(CCCC3)SC2=N [Pifithrin_alpha] + Cc1cc(Nc2cc(N3CCN(C)CC3)nc(Sc3ccc(NC(=O)C4CC4)cc3)n2)n[nH]1 [Tozasertib] (partner 0.1 µM)
In a few lines:
(§1)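 Lung cancer cell lines in 1536-well plates were dosed by pin tool the day after seeding, either with one drug alone or with a fixed anchor-drug dose plus five library-drug doses (not always all listed) in √10 steps. After 5 days, cells were fixed and their nuclei stained in one step (final 0.05% Triton X-100, 1% formaldehyde, 1 ug/ml Hoechst), then counted on 4× images. Relative viability is the nuclei count in treated wells divided by that in vehicle wells. Values are medians of duplicate plates.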

Compound in the assay “Axitinib + Trametinib”: CNC(=O)c1ccccc1Sc1ccc2c(/C=C/c3ccccn3)n[nH]c2c1 [Axitinib] + CC(=O)Nc1cccc(-n2c(=O)n(C3CC3)c(=O)c3c(Nc4ccc(I)cc4F)n(C)c(=O)c(C)c32)c1 [Trametinib] (partner 0.02 µM)
An outline of the steps:
as §1

Compound in the assay “Bemcentinib + Luminespib”: Nc1nc(Nc2ccc3c(c2)CC[C@@H](N2CCCC2)CC3)nn1-c1cc2c(nn1)-c1ccccc1CCC2 [Bemcentinib] + CCNC(=O)c1noc(-c2cc(C(C)C)c(O)cc2O)c1-c1ccc(CN2CCOCC2)cc1 [Luminespib] (partner 0.01 µM)
In a few lines:
as §1

Compound in the assay “Bemcentinib + Vorinostat”: Nc1nc(Nc2ccc3c(c2)CC[C@@H](N2CCCC2)CC3)nn1-c1cc2c(nn1)-c1ccccc1CCC2 [Bemcentinib] + O=C(CCCCCCC(=O)Nc1ccccc1)NO [Vorinostat] (partner 1 µM)
An outline of the steps:
as §1

On to NCI-H650, for which the relative viability in assay [1] (first compound 3.162 µM) came out at 0.79; in assay [1] (first compound 10 µM), 0.678; in assay [1] (first compound 31.62 µM), 0.548; in assay [1] (first compound 100 µM), 0.624; with Axitinib + Trametinib (first compound 0.005 µM), 1.04; with Axitinib + Trametinib (first compound 0.01581 µM), 1. In addition, the relative viability came to 0.893 with Axitinib + Trametinib (first compound 0.05 µM); 0.869 with Axitinib + Trametinib (first compound 0.1581 µM); 1.06 in the assay with Axitinib + Trametinib (first compound 0.5 µM); 0.8 in the assay with Bemcentinib + Luminespib (first compound 0.04 µM); 0.963 with Bemcentinib + Luminespib (first compound 0.1265 µM); 0.922 with Bemcentinib + Luminespib (first compound 0.4 µM). In addition, the relative viability with Bemcentinib + Luminespib (first compound 1.265 µM) was 0.749; in the assay with Bemcentinib + Luminespib (first compound 4 µM), 0.729; with Bemcentinib + Vorinostat (first compound 0.04 µM), 0.353; in the assay with Bemcentinib + Vorinostat (first compound 0.1265 µM), 0.442; with Bemcentinib + Vorinostat (first compound 0.4 µM), 0.378; with Bemcentinib + Vorinostat (first compound 1.265 µM), 0.374. Also, the relative viability with Bemcentinib + Vorinostat (first compound 4 µM) stood at 0.418.

The record behind these values is the supplement of paper PMC10307832.
